Test results: ChEMBL document CHEMBL1150518, “Balanced angiotensin II receptor antagonists. III. The effects of substitution at the imidazole 5-position” (Bioorg Med Chem Lett, 1994)

How the values were obtained:
[1] = biological target: T1, Type-2 angiotensin II receptor (Homo sapiens, UniProt P50052); assay: Binding affinity for angiotensin II AT-2 receptor
T1 sequence (P50052 whole entry): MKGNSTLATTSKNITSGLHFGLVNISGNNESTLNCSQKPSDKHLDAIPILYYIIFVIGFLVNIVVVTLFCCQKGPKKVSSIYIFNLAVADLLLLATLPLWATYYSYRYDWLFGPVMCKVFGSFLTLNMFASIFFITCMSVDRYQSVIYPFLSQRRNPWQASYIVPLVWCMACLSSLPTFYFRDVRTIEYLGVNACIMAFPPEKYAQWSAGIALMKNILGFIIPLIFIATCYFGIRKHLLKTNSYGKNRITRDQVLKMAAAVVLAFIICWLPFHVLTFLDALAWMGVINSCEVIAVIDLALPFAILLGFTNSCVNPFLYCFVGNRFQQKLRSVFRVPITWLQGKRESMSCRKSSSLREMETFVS

[2] = biological target: T2, Type-1 angiotensin II receptor (Homo sapiens, UniProt P30556); assay: Binding affinity for Angiotensin II receptor, type 1
T2 sequence (P30556 whole entry): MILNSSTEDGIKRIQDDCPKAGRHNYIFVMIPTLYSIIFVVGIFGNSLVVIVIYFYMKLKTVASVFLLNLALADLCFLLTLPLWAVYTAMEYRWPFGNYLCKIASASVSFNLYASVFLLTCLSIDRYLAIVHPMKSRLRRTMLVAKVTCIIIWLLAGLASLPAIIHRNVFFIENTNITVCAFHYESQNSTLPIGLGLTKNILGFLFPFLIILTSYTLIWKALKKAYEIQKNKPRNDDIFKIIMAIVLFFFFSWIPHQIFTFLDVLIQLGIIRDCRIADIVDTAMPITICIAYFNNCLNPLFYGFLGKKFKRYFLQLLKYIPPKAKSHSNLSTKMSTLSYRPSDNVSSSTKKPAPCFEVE

| Compound | IC50 [1] [nM] | IC50 [2] [nM] |
| --- | --- | --- |
| CCCCN(Cc1ccccc1)C(=O)c1ccc(COC(=O)c2c(CC)nc(CCC)n2Cc2ccc(-c3ccccc3-c3nn[nH]n3)cc2)cc1 | 200 | 8 |
| CCCc1nc(CC)c(C(=O)OC(C(=O)c2ccccc2)c2ccccc2)n1Cc1ccc(-c2ccccc2S(=O)(=O)NC(=O)OCCC(C)C)cc1F (centres undefined) | 3 | 0.8 |
| CCCCCOC(=O)NS(=O)(=O)c1ccccc1-c1ccc(Cn2c(CCC)nc(CC)c2C(=O)OCCC(=O)Nc2ccccc2)c(F)c1 | 1 | 0.1 |
| CCCc1nc(CC)c(C(=O)OCc2ccc(C(=O)N(c3ccccc3)c3ccccc3)cc2)n1Cc1ccc(-c2ccccc2-c2nnn[nH]2)cc1 | 200 | 20 |
| CCCCOC(=O)NS(=O)(=O)c1ccccc1-c1ccc(Cn2c(CCC)nc(CC)c2C(=O)OCc2ccccc2C(=O)c2ccccc2)c(F)c1 | 0.9 | 0.2 |
| CCCCN(CCCC)C(=O)CCCOC(=O)c1c(CC)nc(CCC)n1Cc1ccc(-c2ccccc2-c2nnn[nH]2)cc1 | 500 | 30 |
| CCCCN(Cc1ccccc1)C(=O)C#CCOC(=O)c1c(CC)nc(CCC)n1Cc1ccc(-c2ccccc2-c2nnn[nH]2)cc1 | 400 | 10 |
| CCCc1nc(CC)c(C(=O)OCc2ccccc2C(=O)c2ccccc2)n1Cc1ccc(-c2ccccc2S(=O)(=O)NC(=O)OCCc2ccccc2)cc1F | 0.69 | 0.57 |
| CCCc1nc(CC)c(C(=O)OCc2ccccc2C(=O)c2ccccc2)n1Cc1ccc(-c2ccccc2S(=O)(=O)NC(=O)OCCc2ccccc2)cc1 | 2.1 | 0.74 |
| CCCc1nc(CC)c(C(=O)OCc2ccccc2C(=O)c2ccccc2)n1Cc1ccc(-c2ccccc2S(=O)(=O)NC(=O)OCC(C)C)cc1F | 1 | 0.5 |
| CCCc1nc(CC)c(C(=O)OCc2ccc(C(=O)c3ccccc3)cc2)n1Cc1ccc(-c2ccccc2-c2nn[nH]n2)cc1 | 2000 | 9 |
| CCCc1nc(CC)c(C(=O)OCCN(C(=O)c2ccccc2)c2ccccc2)n1Cc1ccc(-c2ccccc2S(=O)(=O)NC(=O)OCCC(C)C)cc1F | 2 | 0.1 |
| CCCc1nc(CC)c(C(=O)OCc2cccc(C(=O)N(c3ccccc3)c3ccccc3)c2)n1Cc1ccc(-c2ccccc2-c2nn[nH]n2)cc1 | 300 | 30 |
| CCCc1nc(CC)c(C(=O)OCc2ccccc2C(=O)c2ccccc2)n1Cc1ccc(-c2ccccc2-c2nnn[nH]2)cc1 | 300 | 2 |
| CCCc1nc(CC)c(C(=O)OCc2ccc(-c3ccccc3)cc2)n1Cc1ccc(-c2ccccc2-c2nnn[nH]2)cc1 | 3000 | 3 |
| CCCc1nc(CC)c(C(=O)OCC#CC(=O)N(c2ccccc2)c2ccccc2)n1Cc1ccc(-c2ccccc2-c2nn[nH]n2)cc1 | 600 | 40 |
| CCCCOC(=O)NS(=O)(=O)c1ccccc1-c1ccc(Cn2c(CCC)nc(CC)c2C(=O)NCCCOc2ccccc2)c(F)c1 | 20 | 0.4 |
| CCCc1nc(CC)c(C(=O)OCc2ccccc2-c2ccccc2)n1Cc1ccc(-c2ccccc2-c2nnn[nH]2)cc1 | 2000 | 3 |
| CCCOC(=O)NS(=O)(=O)c1ccccc1-c1ccc(Cn2c(CCC)nc(CC)c2C(=O)OCc2cccc(C(=O)c3ccccc3)c2)c(F)c1 | 10 | 0.3 |
| CCCc1nc(CC)c(C(=O)NCc2ccccc2Sc2ccccc2)n1Cc1ccc(-c2ccccc2S(=O)(=O)NC(=O)OCCC(C)C)cc1F | 3 | 0.4 |
| CCCCN(Cc1ccccc1)C(=O)CCCOC(=O)c1c(CC)nc(CCC)n1Cc1ccc(-c2ccccc2-c2nn[nH]n2)cc1 | 300 | 10 |
| CCCc1nc(CC)c(C(=O)OCCN(C(=O)OCCC(C)C)c2ccccc2)n1Cc1ccc(-c2ccccc2S(=O)(=O)NC(=O)OCCC(C)C)cc1F | 4 | 0.2 |
| CCCc1nc(CC)c(C(=O)OCc2ccccc2C(=O)c2ccccc2)n1Cc1ccc(-c2ccccc2S(=O)(=O)NC(=O)OC)cc1 | 10 | 0.6 |
| CCCc1nc(CC)c(C(=O)OCc2ccccc2C(=O)c2ccccc2)n1Cc1ccc(-c2ccccc2S(=O)(=O)NC(=O)OCCC(C)C)cc1 | 1.9 | 0.35 |
| CCCc1nc(CC)c(C(=O)OCc2cccc(C(=O)c3ccccc3)c2)n1Cc1ccc(-c2ccccc2-c2nn[nH]n2)cc1 | 1000 | 9 |

The remaining lines, values ahead:

| IC50 [1] [nM] | IC50 [2] [nM] | Compound |
| --- | --- | --- |
| 2 | 0.1 | CCCc1nc(CC)c(C(=O)OCCCOc2ccccc2)n1Cc1ccc(-c2ccccc2S(=O)(=O)NC(=O)OCCC(C)C)cc1F |
| 2 | 0.1 | CCCc1nc(CC)c(C(=O)OCC(=O)c2ccccc2)n1Cc1ccc(-c2ccccc2S(=O)(=O)NC(=O)OCCC(C)C)cc1F |
| 9 | 0.3 | CCCc1nc(CC)c(C(=O)NCCCOc2ccccc2)n1Cc1ccc(-c2ccccc2S(=O)(=O)NC(=O)OCCC(C)C)cc1F |
| 2 | 0.2 | CCCc1nc(CC)c(C(=O)OCCCSc2ccccc2)n1Cc1ccc(-c2ccccc2S(=O)(=O)NC(=O)OCCC(C)C)cc1F |
| 3 | 0.3 | CCCc1nc(CC)c(C(=O)OCc2ccccc2-c2ccccn2)n1Cc1ccc(-c2ccccc2S(=O)(=O)NC(=O)OCCC(C)C)cc1F |
| 3 | 0.1 | CCCc1nc(CC)c(C(=O)OCCC(=O)Nc2ccccc2)n1Cc1ccc(-c2ccccc2S(=O)(=O)NC(=O)OCCC(C)C)cc1F |
| 10 | 1 | CCCCCCCOC(=O)NS(=O)(=O)c1ccccc1-c1ccc(Cn2c(CCC)nc(CC)c2C(=O)OCc2ccccc2OC)c(F)c1 |
| 5 | 0.4 | CCCc1nc(CC)c(C(=O)OCc2ccccc2S(=O)(=O)c2ccccc2)n1Cc1ccc(-c2ccccc2S(=O)(=O)NC(=O)OCCC(C)C)cc1F |
| 3 | 0.5 | CCCOC(=O)NS(=O)(=O)c1ccccc1-c1ccc(Cn2c(CCC)nc(CC)c2C(=O)OCc2ccccc2-c2cccs2)c(F)c1 |
| 7 | 0.2 | CCCc1nc(CC)c(C(=O)OCCN2C(=O)c3ccccc3C2=O)n1Cc1ccc(-c2ccccc2S(=O)(=O)NC(=O)OCCC(C)C)cc1F |
| 2 | 0.2 | CCCc1nc(CC)c(C(=O)OCCCS(=O)(=O)c2ccccc2)n1Cc1ccc(-c2ccccc2S(=O)(=O)NC(=O)OCCC(C)C)cc1F |
| 2 | 0.2 | CCCc1nc(CC)c(C(=O)OCCCCOc2ccccc2)n1Cc1ccc(-c2ccccc2S(=O)(=O)NC(=O)OCCC(C)C)cc1F |
| 20 | 0.3 | CCCOC(=O)NS(=O)(=O)c1ccccc1-c1ccc(Cn2c(CCC)nc(CC)c2C(=O)OCc2ccccc2-c2ccsc2)c(F)c1 |
| 20 | 0.6 | CCCc1nc(CC)c(C(=O)OCc2ccccc2-c2ccsc2)n1Cc1ccc(-c2ccccc2S(=O)(=O)NC(=O)OCCC(C)C)cc1F |
| 10 | 0.8 | CCCOC(=O)NS(=O)(=O)c1ccccc1-c1ccc(Cn2c(CCC)nc(CC)c2C(=O)OCc2ccccc2-c2cncnc2)c(F)c1 |
| 5 | 0.2 | CCCc1nc(CC)c(C(=O)OCCCC(=O)Nc2ccccc2)n1Cc1ccc(-c2ccccc2S(=O)(=O)NC(=O)OCCC(C)C)cc1F |
| 2 | 0.1 | CCCc1nc(CC)c(C(=O)OCCCOCc2ccccc2)n1Cc1ccc(-c2ccccc2S(=O)(=O)NC(=O)OCCC(C)C)cc1F |
| 1 | 0.3 | CCCc1nc(CC)c(C(=O)OCc2ccccc2C(=O)Nc2ccccc2)n1Cc1ccc(-c2ccccc2S(=O)(=O)NC(=O)OCCC(C)C)cc1F |
| 1 | 0.1 | CCCc1nc(CC)c(C(=O)OCc2ccccc2OC)n1Cc1ccc(-c2ccccc2S(=O)(=O)NC(=O)OCCC(C)C)cc1F |
| 3 | 0.3 | CCCc1nc(CC)c(C(=O)OCc2ccccc2C(=O)C(C)(C)C)n1Cc1ccc(-c2ccccc2S(=O)(=O)NC(=O)OCCC(C)C)cc1F |
| 3 | 0.6 | CCCCOC(=O)NS(=O)(=O)c1ccccc1-c1ccc(Cn2c(CCC)nc(CC)c2C(=O)OCc2ccccc2Oc2ccccc2)c(F)c1 |
| 10 | 3 | CCCc1nc(CC)c(C(=O)OCc2ccccc2OCCC(C)C)n1Cc1ccc(-c2ccccc2S(=O)(=O)NC(=O)OCCC(C)C)cc1F |
| 0.9 | 0.6 | CCCc1nc(CC)c(C(=O)OCc2cccc(C(=O)c3ccccc3)c2)n1Cc1ccc(-c2ccccc2S(=O)(=O)NC(=O)OCCC(C)C)cc1F |
| 2 | 0.2 | CCCc1nc(CC)c(C(=O)OCc2ccccc2[S+]([O-])c2ccccc2)n1Cc1ccc(-c2ccccc2S(=O)(=O)NC(=O)OCCC(C)C)cc1F (centres undefined) |
| 9 | 3 | CCCc1nc(CC)c(C(=O)OCc2ccccc2-c2ccccc2)n1Cc1ccc(-c2ccccc2S(=O)(=O)NC(=O)OCCC(C)C)cc1F |
| 5 | 0.1 | CCCc1nc(CC)c(C(=O)OCCCC(=O)c2ccccc2)n1Cc1ccc(-c2ccccc2S(=O)(=O)NC(=O)OCCC(C)C)cc1F |
| 1 | 0.3 | CCCc1nc(CC)c(C(=O)OCc2ccccc2NC(=O)c2ccccc2)n1Cc1ccc(-c2ccccc2S(=O)(=O)NC(=O)OCCC(C)C)cc1F |
